Data from patent US20080293626A1, “Pigment epithelium-derived factor as a therapeutic agent for vascular leakage” (The Johns Hopkins University, priority 2003, published 2008).
Ends that are not written are not given here.

Assays:
[1] = tested on: VEGF-induced retinal vascular permeability; assay: Evans blue assay after intravitreal co-injection with VEGF164; format: in vivo, mouse (C57BL/6J); settings: mouse eye, co-injected intravitreally with VEGF164 at 20-fold molar excess
Method: (§1) Intravitreal injection to assess bioactivity on vascular permeability. C57BL/6J mice, 6-8 weeks of age, were cared for in accordance with the Association for Research in Vision and Opthalmology Statement for the Use of Animals in Ophthalmic and Vision Research. For anesthesia, each received intramuscularly 20 mg/kg ketamine, 20 mg/kg xylazine and 800 mg/kg urethane in 0.3-0.4 ml of phosphate buffered saline (PBS, 1.06 mM KH2PO4, 0.15 M NaCl and 3.00 mM Na2HPO4, pH 7.4). Under 10× magnification, 1 μl of murine VEGF164 (12.6 ng/μl in PBS; R&D Systems, Minneapolis, Minn.) was delivered through a 20° beveled glass pipette, with a tip diameter of 13-20 μm. The contralateral eye received an equal volume of PBS alone or PBS containing 12.6 ng VEGF164, and a 20-fold molar excess of PEDF (232 ng), ACT (278 ng), HSP47 (278 ng), PEDFpep (28.1 ng), ACTpep (29.7 ng), or CHIMERApep (28.2 ng).
Evans Blue assay. […]
To assess the Evans blue-albumin concentration, the optical density of the retinal extract and plasma samples were measured at 620 nm and 740 nm. The retinal vasopermeability was calculated as the quantity of retinal Evans blue normalized to retinal dry weight, plasma Evans blue concentration, and circulation time by using the formula as described^32,44. […]

[2] = tested on: VEGF164-stimulated bovine retinal capillary endothelial cell migration; settings: 8 h
Method: BRCEC migration assay. Bovine retinal capillary endothelial cells (BRCEC) were isolated and cultured as described 45. […] Cells, between the fifth and ninth passage, were starved overnight in MEM with D-Val and 2% fetal bovine serum. Polycarbonate filters (10 μm pore-size, PVPF; Osmonics Inc., Minnetonka, Minn.) were coated with 100 μg/ml collagen. Quadruplicates with test samples in MEM D-Val (28 μl), and 10^4 cells in MEM D-Val (50 μl) were placed in the lower and upper wells, respectively, of the microchemotaxis chamber (NeuroProbe, Gaithersburg, Md.). After incubating 8 hours at 37° C., the non-migrated cells on the upper surface of the filter were removed, and the filters were stained with Harris' hematoxylin. For each of the test samples, one 400× field per quadrant of each of the quadruplicates was counted. From the total cell number in the 4 fields, the mean and standard error of the quadruplicate wells were calculated. Baseline migration equaled the number of migrated cells with MEM D-Val without any added proteins or peptides. The difference between baseline and the number of migrated cells with VEGF added equals maximal total migration.

[3] = tested on: VEGF-induced retinal vascular permeability; assay: Fluorescein angiography after intravitreal co-injection with VEGF164; format: in vivo, mouse (C57BL/6J); settings: mouse eye, co-injected intravitreally with 12.6 ng VEGF164 at 20-fold molar excess; 20 h after injection; qualitative
Method: as §1
Fluorescein angiograghy. Twenty hours after intravitreal injections, each pupil was dilated with one drop of 1% atropine sulfate. After intraperitoneal injection of 0.1 ml of 25% fluorescein, successive retina photographs were taken with a Kowa Genesis camera. The first photograph was taken within 20 seconds of the intraperitoneal fluorescein injection. […] Fluorescein leakage manifests as indistinct vascular borders progressing to diffusely hazy fluorescence.

IC50 [2]: 3 nM
Sequence: VLLSPLSVATALSALSLGAEQRTESIIHRALYYDLISSPDIHGT [PEDFpep]
inhibition of VEGF-induced retinal vascular permeability (Evans blue-albumin) ([1]; 24 h, VEGF-induced increase = 100%, mean ±SE): 83.7±17.1%
effect on VEGF-induced vascular permeability by Evans blue assay ([1]; qualitative statement): effectively inhibited
effect on VEGF-induced fluorescein leakage / vascular permeability (fluorescein angiography) [3]: effectively inhibits
